Experimental data as given in patent publication US20260327222A1, “SULFONAMIDE COMPOUND AND HARMFUL-ARTHROPOD-CONTROLLING COMPOSITION CONTAINING SAME” (SUMITOMO CHEMICAL COMPANY, LIMITED, priority 2022, published 2026).

Columns and labels:
Assay type in all cases: in vivo
[1] = test system: western corn rootworm (Diabrotica virgifera virgifera); experiment: Test Method 5: western corn rootworm on immersed corn seedlings; details: 200 ppm; seedlings immersed 30 seconds; 2nd instar larvae; 5 days; 25 °C
Protocol: Each test compound is dissolved in 50 μL of a mixed solution of polyoxyethylene sorbitan monococoate and acetone (at a volume ratio of 5:95) per 1 mg of the test compound. Water containing 0.03% by volume of Shindaine (registered trademark) is added thereto to prepare a diluted solution containing a prescribed concentration of each test compound.
Young seedlings of corns (Zea mays) are immersed in each of the diluted solutions for 30 seconds. Thereafter, two seedlings are placed in a petri dish (diameter: 90 mm), and ten 2nd instar larvae of western corn rootworm (Diabrotica virgifera virgifera) are released into the dish. After 5 days, the number of the dead insects is counted, and the mortality of insects is calculated by the following equation.
Mortality (%)=(1−Number of dead insects/10)×100
The test was carried out by making the prescribed concentration 200 ppm and using the following present compounds as a test compound according to the test method 5.

[2] = test system: common house mosquito (Culex pipiens pallens); experiment: Test Method 12: common house mosquito larvae in diluted solution; details: 3.5 ppm; final instar larvae; 1 day; 25 °C
Protocol: Each test compound is formulated according to the method mentioned in Formulation Example 1 to obtain each formulation, and water is added thereto to prepare a diluted solution containing a prescribed concentration of each test compound. […]
The test was carried out by making the prescribed concentration 3.5 ppm and using the following present compounds as a test compound according to the test method 12.

[3] = test system: common cutworm (Spodoptera litura); experiment: Test Method 3: common cutworm on sprayed cabbage, 2nd instar larvae; details: 500 ppm, spray 20 mL/seedling, 5 days, 25 °C
Protocol: (§1) Each test compound is formulated according to the method mentioned in Formulation Example 1 to obtain each formulation, and water containing 0.03% by volume of Shindaine (registered trademark) is added thereto to prepare a diluted solution containing a prescribed concentration of each test compound.
(§2) Each of the diluted solutions is sprayed over cabbage (Brassicae oleracea) seedlings (on the developmental stage of the second to third true leaf) planted in a container in a ratio of 20 mL/seedling. Thereafter, the stem and leaf of the seedlings are cut out, and placed in a container lined with a filter paper. Five 2nd instar larvae of common cutworm (Spodoptera litura) are released into the container. After 5 days, the number of the surviving insects is counted, and the mortality of insects is calculated by the following equation.
(§3) Mortality (%)=(1−Number of surviving insects/5)×100
The test was carried out by making the prescribed concentration 500 ppm and using the following present compounds as a test compound according to the test method 3.

[4] = test system: houseflies (Musca domestica); experiment: Test Method 8: housefly, coated container contact; details: coating amount 40 mg/m^2; adult males; 1 day; 25 °C
Protocol: An acetone solution prepared by making the concentration of the test compound 800 ppm is poured into a 20 mL container, and the inner face of the container is uniformly coated with the test compound so as to make the coating amount of 40 mg/m^2, followed by drying.
Five adult male houseflies (Musca domestica) are released into the container, and the container is then covered with a lid. After the prescribed time is elapsed, the state of the houseflies are examined. The mortality of insects is calculated by the following equation.
(§4) Mortality (%)=(Number of dead insects/Number of tested insects)×100
The test was carried out by making the prescribed elapsed time 1 day and using the following present compounds as a test compound according to the test method 8.

[5] = test system: German cockroach (Blattella germanica); experiment: Test Method 6: German cockroach, coated container contact; details: coating amount 40 mg/m^2; male adults; 3 days; 25 °C
Protocol: An acetone solution prepared by making the concentration of the test compound 800 ppm is poured into a 50 mL container, and the inner face of the container is uniformly coated with the test compound so as to make the coating amount of 40 mg/m^2, followed by drying.
Five German cockroach (Blattella germanica) male adults are released into the container, and the container is then covered with a lid. After the prescribed time is elapsed, the state of the German cockroach are examined. The mortality of insects is calculated by the following equation.
as §4
The test was carried out by making the prescribed elapsed time 3 days and using the following present compounds as a test compound according to the test method 6.

[6] = test system: diamondback moth (Plutella xylostella); experiment: Test Example 4 (test method 4): diamondback moth on sprayed cabbage, 2nd instar larvae; details: 500 ppm, spray 20 mL/seedling, 5 days, 25 °C
Protocol: as §1
as §2, with “diamondback moth (Plutella xylostella)” for “common cutworm (Spodoptera litura)”
as §3
The test was carried out by making the prescribed concentration 500 ppm and using the following present compounds as a test compound according to the test method 4.

[7] = test system: diamondback moth (Plutella xylostella); experiment: Test Method 10: diamondback moth on sprayed cabbage, 3rd instar larvae (Formulation Example 5); details: spray 20 mL/seedling, 5 days, 25 °C
Protocol: (§5) Each test compound is formulated according to the method mentioned in Formulation Example 5 to obtain each formulation, and water containing 0.03% by volume of Shindaine (registered trademark) is added thereto to prepare a diluted solution containing a prescribed concentration of each test compound.
(§6) Each of the diluted solutions is sprayed over cabbage (Brassicae oleracea) seedlings (on the developmental stage of the third to fourth true leaf) planted in a container in a ratio of 20 mL/seedling. Thereafter, ten 3rd instar larvae of diamondback moth (Plutella xylostella) are released into the container. After 5 days, the number of the surviving insects is counted, and the mortality of insects is calculated by the following equation.
(§7) Mortality (%)=(1−Number of surviving insects/10)×100
The test was carried out by making the prescribed concentration 200 ppm and using the following present compounds as a test compound according to the test method 10.
The test was carried out by making the prescribed concentration 50 ppm and using the following present compounds as a test compound according to the test method 10.

[8] = test system: common cutworm (Spodoptera litura); experiment: Test Method 9: common cutworm on sprayed cabbage, 3rd instar larvae (Formulation Example 5); details: 200 ppm, spray 20 mL/seedling, 6 days, 25 °C
Protocol: as §5
as §6, with “common cutworm (Spodoptera litura)” for “diamondback moth (Plutella xylostella)”, “6” for “5”, “counted” for “counted,”
as §7
The test was carried out by making the prescribed concentration 200 ppm and using the following present compounds as a test compound according to the test method 9.
The test is carried out by making the prescribed concentration 50 ppm and using the following present compounds as a test compound according to the test method 9. As a result of the test, it is possible to confirm an insecticidal effect on common cutworm (Spodoptera litura).

[9] = test system: cotton aphids (Aphis gossypii); experiment: Test Method 11: cotton aphid foliar spray, cucumber seedlings (Formulation Example 5); details: spray 10 mL/seedling, 5 days after spraying, 25 °C
Protocol: as §5
(§8) Approximately thirty cotton aphids (Aphis gossypii) (all stages of life) are released onto cucumber (Cucumis sativus) seedlings (on the developmental stage of the second true leaf) planted in a container. After 1 day, each of the diluted solutions is sprayed over the seedlings in a ratio of 10 mL/seedling. After additional 5 days, the number of the surviving insects is examined and the control value is calculated by the following equation.
(§9) Control value (%)={1−(Cb×Tai)/(Cai×Tb)}×100 • where symbols in the equation represent the following meanings: • Cb: Number of test insects in non-treated area; • Cai: Number of surviving insects at the time of the investigation in non-treated area; • Tb: Number of test insects in treated area; and • Tai: Number of surviving insects at the time of the investigation in treated area.
(§10) Here, the “non-treated area” represents an area where the same treatment procedure as that of the treated area is carried out except for not using each test compound.
The test was carried out by making the prescribed concentration 200 ppm and using the following present compounds as a test compound according to the test method 11.
The test was carried out by making the prescribed concentration 50 ppm and using the following present compounds as a test compound according to the test method 11.

[10] = test system: cotton aphids (Aphis gossypii); experiment: Test Method 1: cotton aphid foliar spray, cucumber seedlings (Formulation Example 1); details: 500 ppm; spray 10 mL/seedling; 5 days after spraying; 25 °C
Protocol: as §1
as §8, with “30” for “thirty”
as §9, §10
The test was carried out by making the prescribed concentration 500 ppm and using the following present compounds as a test compound according to the test method 1.

**Q.** Which mortality [1] does the source give for `CNS(=O)(=O)c1c(-c2cnc(OCC(F)(F)C(F)(F)F)cn2)nc2ccc(Br)cn12` [compound 1] here?
**A.** ≥ 80%

**Q.** What about the mortality [2] of the same compound?
**A.** ≥ 90%

**Q.** And the mortality [3]?
**A.** ≥ 80%

**Q.** What about the mortality of insects [4] of the same compound?
**A.** ≥ 80%

**Q.** And the mortality of insects [5]?
**A.** ≥ 80%

**Q.** What about the mortality [6] of the same compound?
**A.** ≥ 80%

**Q.** What about the mortality ([7]; 50 ppm) of the same compound?
**A.** ≥ 80%

**Q.** And the mortality ([7]; 200 ppm)?
**A.** ≥ 80%

**Q.** What about the mortality [8] of the same compound?
**A.** ≥ 80%

**Q.** And the control value ([9]; 50 ppm)?
**A.** ≥ 90%

**Q.** And the control value ([9]; 200 ppm)?
**A.** ≥ 90%

**Q.** And the control value [10]?
**A.** ≥ 90%

**Q.** With `CCNS(=O)(=O)c1c(-c2cnc(OCC(F)(F)C(F)(F)F)cn2)nc2ccc(Br)cn12` [compound 2] as the compound, how does the mortality [1] read?
**A.** ≥ 80%

**Q.** And the mortality [2]?
**A.** ≥ 90%

**Q.** And the mortality [3]?
**A.** ≥ 80%

**Q.** And the mortality of insects [4]?
**A.** ≥ 80%

**Q.** And the mortality of insects [5]?
**A.** ≥ 80%

**Q.** And the mortality [6]?
**A.** ≥ 80%

**Q.** What about the mortality ([7]; 50 ppm) of the same compound?
**A.** ≥ 80%

**Q.** And the mortality ([7]; 200 ppm)?
**A.** ≥ 80%

**Q.** What about the mortality [8] of the same compound?
**A.** ≥ 80%

**Q.** What about the control value ([9]; 50 ppm) of the same compound?
**A.** ≥ 90%

**Q.** What about the control value ([9]; 200 ppm) of the same compound?
**A.** ≥ 90%

**Q.** And the control value [10]?
**A.** ≥ 90%

**Q.** With `CN(C)S(=O)(=O)c1c(-c2ccc(OCC(F)(F)C(F)F)nn2)nc2ccc(I)cn12` [compound 4] as the compound, how does the mortality [3] read?
**A.** ≥ 80%

**Q.** And the mortality [6]?
**A.** ≥ 80%

**Q.** And the mortality ([7]; 50 ppm)?
**A.** ≥ 80%

**Q.** What about the mortality ([7]; 200 ppm) of the same compound?
**A.** ≥ 80%

**Q.** And the mortality [8]?
**A.** ≥ 80%

**Q.** What about the control value [10] of the same compound?
**A.** ≥ 90%
